We go through 5 compounds from ChEMBL document CHEMBL1154341, “Inhibition of the dimerization and active site of HIV-1 protease by secondary metabolites from the Vietnamese mushroom Ganoderma colossum” (J Nat Prod, 2009).

Calls of active or inactive are those of the source. No cut-off for these calls is given here.

As usually defined, the IC50 is the concentration needed to halve the response being measured. One may read the Ki as the equilibrium dissociation constant of an inhibitor or competing ligand from its target. Lower therefore signals higher affinity.

Experiment [1] addresses T1, Protease (Human immunodeficiency virus 1, UniProt Q9YQ12). Briefly: Inhibition of HIV1 protease.
The target of experiment [2] is Human immunodeficiency virus type 1 integrase (Human immunodeficiency virus 1, UniProt Q7ZJM1). Put plainly: Inhibition of HIV1 integrase strand transfer activity.
Experiment [3] is described as follows: Inhibition of HIV2 protease. On the set-up: species or system Human immunodeficiency virus 2.
Experiment [4] addresses T1, Protease. Briefly: Inhibition of recombinant HIV1 protease after 30 mins by reverse phase HPLC.
In experiment [5] the target is Protease (Human immunodeficiency virus 1) (UniProt Q9YQ12). Briefly: (§1) Inhibition of HIV1 protease dimerization by Zhang-Poorman kinetic assay.
Experiment [6] addresses T1, Protease. Briefly: Competitive inhibition of HIV1 protease by Lineweaver-Burke plot analysis.
Experiment [7] deals with T1, Protease. The experiment is described as §1.

In the case of `CC(C)c1cc2c(c(O)c1O)[C@@]1(C(=O)O)CCCC(C)(C)[C@@H]1CC2` [CARNOSIC ACID], the midpoint of inhibition in experiment [1], the IC50, lay at 0.24 µM.

Regarding `COc1cc(/C=C/C(=O)CC(=O)/C=C/c2ccc(O)c(OC)c2)ccc1O` [CURCUMIN], the IC50 in experiment [2] was 40 µM; in experiment [1], 100 µM; in experiment [3], 250 µM.

Regarding `CC(C)=CCC/C(C)=C/CC/C(=C/Cc1cc(O)ccc1O)C(=O)O` [GANOMYCIN B], the IC50 in experiment [4] is 2.9 µM. Also, in experiment [5], the inhibition entry is “inactive”. The affinity in experiment [6] corresponds to a Ki of 4 µM.

For `CC(C)=CCC/C(C)=C/CCC1=C[C@@H](c2cc(O)ccc2O)OC1=O` [GANOMYCIN I], the IC50 in experiment [4] was 21.9 µM.

In experiment [7], `CC1=CC[C@H]([C@@H](C)[C@H]2CC[C@@]3(C)C4=C(C=C5C=CC(=O)OC(C)(C)[C@@H]5CC4)CC[C@]23C)OC1=O` [SCHISANLACTONE A] showed a Ki of 17.5 µM. That is a double-digit micromolar value.
